Assay [1] deals with CFTR, genotype G542X/G542X. The experiment in a line: CFTR activity by mutation type, G542X/G542X (Table 7). The assay is classed as cell-based, human.
In assay [2] the target is T1, CFTR in G542X/F508del HBEs (Homo sapiens, UniProt P13569, DEL508-508).
T1 construct: endogenous in cells; host or cells: primary lung epithelial cells (hBEs), genotype G542X/F508del
The experiment in a line: Ussing measurements, G542X/F508del HBEs. The assay is classed as cell-based. The conditions noted are these: genotype G542X/F508del. The procedure: As discussed above, Ussing measurements were used to measure CFTR activity. In this method, primary lung epithelial cells (hBEs) with a Cystic fibrosis causing class I mutation were differentiated for a minimum of 4 weeks in an air-liquid interface on SnapWell™ filter plates prior to the Ussing measurements. Cells were apically mucus-washed for 30 minutes prior to treatment with compounds. The basolateral media was removed and replaced with media containing the compound of interest diluted to its final concentration from DMSO or aqueous stocks. Treated cells were incubated at 37° C. and 5% CO2 for 24 hours. […] The short-circuit current was measured in voltage clamp-mode (Vhold=0 mV), and the entire assay was conducted at a temperature of 36° C.-36.5° C. Once the voltages stabilized, the chambers were clamped, and data were recorded by pulse readings every 5 seconds. Following baseline current stabilization, the following additions were applied and the changes in current and resistance of the cells were monitored: • 1. […]
The forskolin-sensitive current and inhibitable current (that potentiated current that was blocked by CFTRinh-172) were measured as the specific activity of the ΔF508-CFTR channel, and increase in response to compound in this activity over that observed in vehicle-treated samples were identified as the correction of ΔF508-CFTR function imparted by the compound tested. […]

The subject of assay [3] is CFTR in G551D/F508del HBEs. The experiment in a line: Ussing measurements, G551D/F508del HBEs. The class given is cell-based, human. Particulars: genotype G551D/F508del. The procedure:
As discussed above, Ussing measurements was used to measure CFTR activity. In this method, primary lung epithelial cells (hBEs) with a Cystic Fibrosis-causing class III mutation were differentiated for a minimum of 4 weeks in an air-liquid interface on SnapWell™ filter plates prior to the Ussing measurements. Cells were apically mucus-washed for 30 minutes prior to treatment with compounds. The basolateral media was removed and replaced with media containing the compound of interest diluted to its final concentration from DMSO stocks. Treated cells were incubated at 37° C. and 5% CO2 for 24 hours. At the end of the treatment period, the cells on filters were transferred to the Ussing chamber and equilibrated for 30 minutes. The short-circuit current was measured in voltage clamp-mode (Vhold=0 mV), and the entire assay was conducted at a temperature of 36° C.-36.5° C. Once the voltages stabilized, the chambers were clamped, and data was recorded by pulse readings every 5 seconds. Following baseline current stabilization, the following additions were applied and the changes in current and resistance of the cells was monitored: • 1. Benzamil to the apical chamber to inhibit ENaC sodium channel. • 2. Forskolin to both chambers to activate ΔF508-CFTR by phosphorylation. • 3. Ivacaftor or Genistein to the apical chamber to potentiate ΔF508-CFTR channel opening. • 4. CFTRinh-172 to the apical chamber to inhibit ΔF508-CFTR Cl-conductance.
The forskolin-sensitive current and inhibitable current (that potentiated current that is blocked by CFTRinh-172) were measured as the specific activity of the ΔF508-CFTR channel, and increase in response to compound in this activity over that observed in vehicle-treated samples were identified as the correction of ΔF508-CFTR function imparted by the compound tested.
The results are shown below in Tables 5 and 6. Compound A is 10 uM and VX-809 is 3 uM and ivacaftor is 1 uM.

For another assay, the target named is T2, ΔF508-CFTR (Homo sapiens, UniProt P13569, DEL508-508).
T2 construct: primary lung epithelial cells (hBEs) homozygous for the Cystic Fibrosis-causing ΔF508 mutation; endogenous in cells; host or cells: primary lung epithelial cells (hBEs) homozygous for ΔF508
Description: hBE equivalent current (Ieq) assay, primary lung epithelial cells homozygous for ΔF508. The assay is classed as cell-based. Particulars: compound at 10 uM and VX-809 at 1 uM, relative to VX-809 (1 uM); 24 h treatment. As to the method: Primary lung epithelial cells homozygous for the Cystic Fibrosis-causing ΔF508 mutation were differentiated for a minimum of 4 weeks in an air-liquid interface on Costar 24 well HTS filter plates prior to the equivalent current (Ieq) measurements. Cells were apically mucus-washed for 30 minutes 24h prior to treatment with compounds. The basolateral media was removed and replaced with media containing the compound of interest diluted to its final concentration from DMSO stocks. Treated cells were incubated at 37° C. and 5% CO2 for 24 hours. At the end of the treatment period, the media was changed to the Ieq experimental solution for 30 minutes before the experiment and plates are maintained in a CO2-free incubator during this period. The plates containing the cells were then placed in pre-warmed heating blocks at 36° C.±0.5 for 15 minutes before measurements are taken. The transepithelial voltage (VT) and conductance (GT) were measured using a custom 24 channel current clamp (TECC-24) with 24 well electrode manifold. The Ieq assay measurements were made following additions with standardized time periods: • 1. The baseline VT and GT values were measured for approximately 20 minutes. • 2. Benzamil was added to block ENaC for 15 minutes. • 3. Forskolin plus VX-770 (ivacaftor) were added to maximally activate ΔF508-CFTR for 27 minutes. • 4. Bumetanide was added to inhibit the NaK2Cl cotransporter and shut-off secretion of chloride.
The activity data captured was the area under the curve (AUC) for the traces of the equivalent chloride current. The AUC was collected from the time of the forskolin/VX-770 addition until the inhibition by bumetanide addition. Correction in response to compound treatment was scored as the increase in the AUC for compound-treated samples over that of vehicle-treated samples.
The results are shown below in Table 2. ++ indicates activity ≥25% run at 10 uM of VX-809 at 1 uM, + indicates activity 10 to <25% run at 10 uM of VX-809 at 1 uM, ** indicates activity ≥200% of VX-809 (1 uM) with compound at 10 uM and VX-809 at 1 uM; * indicates activity 100-200% of VX-809 (1 uM) with compound at 10 uM and VX-809 at 1 uM. ^## indicates activity ≥200% of VX-809 (3 uM) with compound at 10 uM and VX-809 at 3 uM; ^# indicates activity 100-200% of VX-809 (3 uM) with compound at 10 uM and VX-809 at 3 uM.

T1 sequence (P13569 with tags, fused parts or gaps DEL508-508): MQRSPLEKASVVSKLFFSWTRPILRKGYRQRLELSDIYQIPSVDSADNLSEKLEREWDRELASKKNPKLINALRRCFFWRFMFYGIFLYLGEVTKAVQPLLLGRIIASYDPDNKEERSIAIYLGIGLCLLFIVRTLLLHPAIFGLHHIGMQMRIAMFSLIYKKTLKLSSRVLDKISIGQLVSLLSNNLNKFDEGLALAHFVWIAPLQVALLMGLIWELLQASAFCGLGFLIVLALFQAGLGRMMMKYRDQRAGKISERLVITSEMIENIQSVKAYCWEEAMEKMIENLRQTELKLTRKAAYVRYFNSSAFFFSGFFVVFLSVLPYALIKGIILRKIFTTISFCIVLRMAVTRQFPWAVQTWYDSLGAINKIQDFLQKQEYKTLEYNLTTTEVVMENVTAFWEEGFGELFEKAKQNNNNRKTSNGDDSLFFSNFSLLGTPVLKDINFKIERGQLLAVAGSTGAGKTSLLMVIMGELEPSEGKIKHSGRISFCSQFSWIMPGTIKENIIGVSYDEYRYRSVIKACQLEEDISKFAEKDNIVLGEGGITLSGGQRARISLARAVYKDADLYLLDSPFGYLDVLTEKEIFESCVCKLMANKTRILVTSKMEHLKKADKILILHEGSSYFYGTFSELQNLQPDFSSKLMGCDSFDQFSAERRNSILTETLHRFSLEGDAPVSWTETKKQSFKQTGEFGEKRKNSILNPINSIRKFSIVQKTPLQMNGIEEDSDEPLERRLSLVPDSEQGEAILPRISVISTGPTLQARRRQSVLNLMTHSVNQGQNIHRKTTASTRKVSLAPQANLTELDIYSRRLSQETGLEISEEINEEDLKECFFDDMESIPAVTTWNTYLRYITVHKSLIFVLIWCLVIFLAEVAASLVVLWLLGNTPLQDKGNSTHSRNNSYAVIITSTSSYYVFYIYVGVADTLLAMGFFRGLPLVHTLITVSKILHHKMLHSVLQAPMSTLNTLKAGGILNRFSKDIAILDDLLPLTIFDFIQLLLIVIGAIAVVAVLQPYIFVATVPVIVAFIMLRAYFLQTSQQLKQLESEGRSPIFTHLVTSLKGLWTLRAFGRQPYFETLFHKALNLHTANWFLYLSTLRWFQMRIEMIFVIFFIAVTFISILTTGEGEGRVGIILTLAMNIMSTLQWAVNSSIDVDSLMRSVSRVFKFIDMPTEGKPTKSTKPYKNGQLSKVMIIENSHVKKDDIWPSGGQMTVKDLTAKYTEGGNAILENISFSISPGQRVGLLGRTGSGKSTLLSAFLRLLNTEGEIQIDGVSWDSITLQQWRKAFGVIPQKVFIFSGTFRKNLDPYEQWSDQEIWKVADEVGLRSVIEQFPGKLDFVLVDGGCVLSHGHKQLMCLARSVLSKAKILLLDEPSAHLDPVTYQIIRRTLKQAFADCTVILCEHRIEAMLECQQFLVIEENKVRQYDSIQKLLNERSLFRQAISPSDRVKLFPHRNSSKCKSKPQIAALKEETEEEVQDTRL
T2 sequence (P13569 with tags, fused parts or gaps DEL508-508): as above

On to `C[C@@H](O)c1nnc([C@H]2C[C@H](NC(=O)c3cc(-c4ccccc4)no3)C2)o1` [Example 6, N-(trans-3-(5-((R)-1-hydroxyethyl)-1,3,4-oxadiazol-2-yl)cyclobutyl)-3-phenylisoxazole-5-carboxamide], for which, in assay [1] (compound A 10uM + NB124 250 ug/ml, relative activity of 100% = NB124), the “Combination with NB124, activity” value is “++++ (++++ indicates activity at 10uM of >150% of the indicated relative activity treatment)”. Besides, the “Stand Alone activity” value in assay [1] (compound A 10uM, relative activity of 100% = NB124 (250 ug/ml)) is recorded as “++ (++ indicates activity at 10uM of 50% to <100% of the indicated relative activity treatment)”; in assay [2] (compound A 10uM, relative activity of 100% = ivacaftor (1uM) and lumacaftor (3 uM)) it was “+ (+ indicates activity at 10uM of 15% to <50% of the indicated relative activity treatment)”; in assay [3] (compound A 10uM, relative activity of 100% = ivacaftor (1uM)) it was “+ (+ indicates activity at 10uM of 15% to <50% of the indicated relative activity treatment)”. Further, the “Combination with ivacaftor and lumacaftor, activity” value in assay [2] (compound A 10uM + ivacaftor 1uM + lumacaftor 3 uM, relative activity of 100% = ivacaftor and lumacaftor) is “++++ (++++ indicates activity at 10uM of >150% of the indicated relative activity treatment)”. Moreover, the “Combination with ivacaftor, activity” value in assay [3] (compound A 10uM + ivacaftor 1uM, relative activity of 100% = ivacaftor) is reported as “++++ (++++ indicates activity at 10uM of >150% of the indicated relative activity treatment)”. Further, at ΔF508-CFTR, the “leq: activity of compound with VX-809, % of VX-809 (AUC of equivalent chloride current)” value is “* (* indicates activity 100-200% of VX-809 (1 uM) with compound at 10 uM and VX-809 at 1 uM)”.
